Data from patent US10772840B2 (Charleston Laboratories, Inc., priority 2016, dated 2020).

How the values were obtained:
[1] = Impurity profile (related substances) by HPLC, initial and after one month at 40° C. (stability study); type: physicochemical; conditions: HPLC percent area
Method: The percentages of related substances were measured using an HPLC.
Stock promethazine HCl selectivity solution was prepared by accurately weighing about 2 mg of EP promethazine for peak identification CRS and transferring into 1 mL of diluent (prepared by mixing 750 mL of mobile phase A and 250 mL of acetonitrile), followed by vortexing to dissolve.
Ten capsules were randomly selected and weighed. The contents of the ten capsules were emptied into a 500 mL volumetric flask. 300 mL of diluent was added and the mixture was sonicated in an ice bath for 40 minutes or until completely disintegrated with intermittent swirling. The temperature was equilibrated to room temperature and more diluent was added to volume.
Promethazine HCl impurity sample solution: stock solution sample was filtered through a 0.45 μm PVDF membrane, syringe filter or a 0.45 μm PTFE w/GMF membrane, syringe filter discarding the first 5 mL and collecting approximately 20 mL into an appropriate glass container. Fill an HPLC vial with the filtrate
The RT of the promethazine in the promethazine HCl selectivity solution is between 44.1 and 53.9.
Mobile Phase B: 0.2% TFA in Acetonitrile, which was prepared by mixing well 2.0 ml of trifluoroacetic acid to 1 L of acetonitrile; and Gradient used was as follows in Table 15.
All known and unknown impurities were calculated via percent area as follow:
[formula] Where: • Ru=Peak area of related substance in the sample solution • Rt=Sum of peak area of promethazine or sumatriptan and all related substances areas corresponding to respective peak in sample solution • RRF=Relative Response Factor for related substances
The formulation was examined for its stability after one month at 40° C.

[2] = Dissolution measurement by USP Apparatus 2 (Paddle Apparatus), HPLC analysis; type: physicochemical; conditions: in a capsule, 500 ml 0.1 N HCl pH 1.1, N=6
Method: Dissolution studies were conducted to measure the rates of dissolution of active ingredients using a USP Apparatus 2 (Paddle Apparatus) with a dissolution fluid of 500 ml deaerated 0.1 N HCl (i.e., pH 1.1) at 37.0+/−0.5° C. Dissolution samples were analyzed by HPLC.
Dissolution medium of 0.1N HCl was prepared by mixing approximately 85 ml of concentrated (12N) Hydrochloric Acid with 10 L of water. Stock promethazine HCl standard solution was prepared by adding approximately 30 ml of dissolution medium to 25.0 mg of dried Promethazine Hydrochloride USP reference standard in a 50 ml volumetric flash, diluted to volume with dissolution media, and mixed well. […] The resulting solution is diluted to volume with dissolution medium and mixed well.
The dissolution apparatus used is USP Apparatus 2 (Paddle Apparatus) with a speed of 50 rpm at 37.0° C.±0.5° C. Dissolution medium (500 ml) was Helium sparged for at least 10 minutes. N=6 samples were tested. Sample time point of 5, 10, 15, 20, 30, 45, 60, and 90 minutes (final time point at 250 rpm). Filters: QLA 10 μm in-line full flow porous filter or equivalent; chromafil 1.0 μm on-line glass fiber membrane filter or equivalent.
The dissolution apparatus was assembled and the paddle was positioned so that the distance between its lower edge and the lower inner surface of the vessel is within 25 mm±2 mm throughout the test. This step was repeated for each of the six vessels. The speed (50 rpm) and the temperature (37.0° C.±0.5° C.) were set. 500 mL of 0.1N HCl solution were placed into each of the six vessels, previously degassed via helium purge, degassed using degasser or other suitable means. The Dissolution medium was equilibrated to set temperature and the temperature of the dissolution medium was checked with a thermometer or thermocouple before starting the dissolution. Each of the six (6) capsules were accurately weighed and the weight was recorded. The dissolution test was started. Each capsule was dropped with sinker into vessels noting the station assigned to each recorded capsule weight. The shaft was rotated at 50 rpm. Samples were withdrawn by dissolution auttosampler at 5, 10, 15, 20, 30, 45, 60, and 90 minutes into HPLC vials, or were withdraw manually. Filters (QLA 10 μm in-line full flow porous filter or equivalent; chromafil 1.0 μm on-line glass fiber membrane filter or equivalent) were utilized, discarding at least the first 5 mL of the filtrate, and clear filtrate was transfered into HPLC vials. After withdrawing samples at the 60 minute time point, the paddle rotation speed was increased to 250 rpm until the next time point of 90 minutes.
HPLC conditions: Flow rate: 1.0 ml/min; Injection Volume: 10 μL; Column Temperature: 40° C.±2° C.; Wavelengths: 240 nm; Run Time: 7 minutes; Mobile Phase A was 0.2% TFA in Water, which was prepared by mixing well 2.0 ml of trifluoroacetic acid with 1 L of water. Mobile Phase B: 0.2% TFA in Acetonitrile, which was prepared by mixing well 2.0 ml of trifluoroacetic acid to 1 L of acetonitrile; and Gradient used was as follows in Table 8.
If a Water® dissolution autosampler was utilized, then the Empower Dissolution Software was used to calculate the profile. Calculation are performed using a validated excel spreadsheet. When the sample was performed manually, the volume correction was considered for the calculation.

[3] = after 1 month store at 40° C., 5 min, 50 rpm
[4] = after 1 month store at 40° C., 10 min, 50 rpm
[5] = after 1 month store at 40° C., 15 min, 50 rpm
[6] = after 1 month store at 40° C., 20 min, 50 rpm
[7] = after 1 month store at 40° C., 30 min, 50 rpm
[8] = after 1 month store at 40° C., 45 min, 50 rpm
[9] = after 1 month store at 40° C., 60 min, 50 rpm
[10] = after 1 month store at 40° C., 90 min (250 rpm after 60 min)
[11] = large batch, 90 min (250 rpm after 60 min)

Impurity percentages, all related substances combined ([1]; in a capsule stored at 40° C. for 1 month): None Detected
Impurity percentages, all related substances combined ([1]; in a capsule, initial (before storage)): 0.1%
Dissolution (% release), Max. [2, 3]: 77
Dissolution (% release), Mean [2, 3]: 60
Dissolution (% release), Min. [2, 3]: 47
Dissolution (% release), Max. [2, 4]: 89
Dissolution (% release), Mean [2, 4]: 76
Dissolution (% release), Min. [2, 4]: 62
Dissolution (% release), Max. [2, 5]: 91
Dissolution (% release), Mean [2, 5]: 81
Dissolution (% release), Min. [2, 5]: 69
Dissolution (% release), Max. [2, 6]: 94
Dissolution (% release), Mean [2, 6]: 85
Dissolution (% release), Min. [2, 6]: 74
Dissolution (% release), Max. [2, 7]: 95
Dissolution (% release), Mean [2, 7]: 88
Dissolution (% release), Min. [2, 7]: 80
Dissolution (% release), Max. [2, 8]: 97
Dissolution (% release), Mean [2, 8]: 91
Dissolution (% release), Min. [2, 8]: 84
Dissolution (% release), Max. [2, 9]: 98
Dissolution (% release), Mean [2, 9]: 93
Dissolution (% release), Min. [2, 9]: 86
Dissolution (% release), Max. [2, 10]: 100
Dissolution (% release), Mean [2, 10]: 98
Dissolution (% release), Min. [2, 10]: 96
Dissolution (% release), Max. ([2]; large batch, 5 min, 50 rpm): 73
Dissolution (% release), Mean ([2]; large batch, 5 min, 50 rpm): 66
Dissolution (% release), Min. ([2]; large batch, 5 min, 50 rpm): 56
Dissolution (% release), Max. ([2]; large batch, 10 min, 50 rpm): 86
Dissolution (% release), Mean ([2]; large batch, 10 min, 50 rpm): 80
Dissolution (% release), Min. ([2]; large batch, 10 min, 50 rpm): 73
Dissolution (% release), Max. ([2]; large batch, 15 min, 50 rpm): 89
Dissolution (% release), Mean ([2]; large batch, 15 min, 50 rpm): 85
Dissolution (% release), Min. ([2]; large batch, 15 min, 50 rpm): 81
Dissolution (% release), Max. ([2]; large batch, 20 min, 50 rpm): 91
Dissolution (% release), Mean ([2]; large batch, 20 min, 50 rpm): 88
Dissolution (% release), Min. ([2]; large batch, 20 min, 50 rpm): 84
Dissolution (% release), Max. ([2]; large batch, 30 min, 50 rpm): 93
Dissolution (% release), Mean ([2]; large batch, 30 min, 50 rpm): 90
Dissolution (% release), Min. ([2]; large batch, 30 min, 50 rpm): 87
Dissolution (% release), Max. ([2]; large batch, 45 min, 50 rpm): 95
Dissolution (% release), Mean ([2]; large batch, 45 min, 50 rpm): 93
Dissolution (% release), Min. ([2]; large batch, 45 min, 50 rpm): 91
Dissolution (% release), Max. ([2]; large batch, 60 min, 50 rpm): 96
Dissolution (% release), Mean ([2]; large batch, 60 min, 50 rpm): 94
Dissolution (% release), Min. ([2]; large batch, 60 min, 50 rpm): 92
Dissolution (% release), Max. [2, 11]: 98
Dissolution (% release), Mean [2, 11]: 98
Dissolution (% release), Min. [2, 11]: 97
Structure (SMILES): CNS(=O)(=O)Cc1ccc2[nH]cc(CCN(C)C)c2c1 [Sumatriptan, Sumatriptan succinate]
